The target of assay [1] is T1, AMPK beta 1 (Homo sapiens, UniProt Q13131+Q9Y478).
T1 construct: in-cell-ELISA for phospho-ACC (Acetyl-CoA carboxylase 1) in HepG2 cells (liver); endogenous in cells; host or cells: HepG2 (assignment to the beta 1 column inferred)
The assay is described as follows: in-cell-ELISA for phospho-ACC: activation of AMPK, beta 1 (HepG2 cells / C2C12 myotubes). It counts as cell-based. Conditions: 2 h, percentage activation over vehicle control; for activation at 1 µM / activation at 10 µM / activation at 3 µM: read-out: Percentage activation of beta 1 at given concentration. As to the method:
(§1) Activation of AMPK by various compounds were measured using in-cell-ELISA for phospho-ACC (Acetyl-CoA carboxylase 1) in HepG2 cells (liver) and fully differentiated myotubes (C2C12 cells) grown in 96 well plate. Cells were treated with 1 μM, 3 μM or 10 μM of the molecule (Example) for 2 h in serum free DMEM media. After methanol fixation, cells were blocked with BSA followed by addition of anti-phospho ACC antibody (Cell Signaling) and HRP conjugated secondary antibody. Absorbance values taken at 450 nm were normalized with total DNA (Hoechest stain). Results were expressed as percentage activation over vehicle control.
(§2) Percentage activation at compound (Example) concentration of 1, 3 or 10 μM for compounds according to the invention are shown in the following table. The number of the compound corresponds to the number of the Example (Ex) in the experimental section.
(In general: In an ELISA, binding on a coated surface is turned into a signal by an enzyme label.)

The target in assay [2] is T2, AMPK beta 2 (Mus musculus, UniProt Q6PAM0+Q8BRK8).
T2 construct: fully differentiated myotubes (C2C12 cells) grown in 96 well plate; endogenous in cells; host or cells: C2C12 myotubes (assignment to the beta 2 column inferred)
T2 sequence (Q6PAM0 whole entry): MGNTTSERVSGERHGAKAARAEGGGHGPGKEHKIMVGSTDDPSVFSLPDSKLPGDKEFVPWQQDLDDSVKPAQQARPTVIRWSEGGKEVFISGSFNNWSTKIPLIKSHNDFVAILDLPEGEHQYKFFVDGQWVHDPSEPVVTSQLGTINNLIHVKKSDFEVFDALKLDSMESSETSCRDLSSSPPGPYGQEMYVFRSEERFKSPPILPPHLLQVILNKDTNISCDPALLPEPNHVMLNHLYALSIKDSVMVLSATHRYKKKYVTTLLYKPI
T2 sequence (Q8BRK8 whole entry): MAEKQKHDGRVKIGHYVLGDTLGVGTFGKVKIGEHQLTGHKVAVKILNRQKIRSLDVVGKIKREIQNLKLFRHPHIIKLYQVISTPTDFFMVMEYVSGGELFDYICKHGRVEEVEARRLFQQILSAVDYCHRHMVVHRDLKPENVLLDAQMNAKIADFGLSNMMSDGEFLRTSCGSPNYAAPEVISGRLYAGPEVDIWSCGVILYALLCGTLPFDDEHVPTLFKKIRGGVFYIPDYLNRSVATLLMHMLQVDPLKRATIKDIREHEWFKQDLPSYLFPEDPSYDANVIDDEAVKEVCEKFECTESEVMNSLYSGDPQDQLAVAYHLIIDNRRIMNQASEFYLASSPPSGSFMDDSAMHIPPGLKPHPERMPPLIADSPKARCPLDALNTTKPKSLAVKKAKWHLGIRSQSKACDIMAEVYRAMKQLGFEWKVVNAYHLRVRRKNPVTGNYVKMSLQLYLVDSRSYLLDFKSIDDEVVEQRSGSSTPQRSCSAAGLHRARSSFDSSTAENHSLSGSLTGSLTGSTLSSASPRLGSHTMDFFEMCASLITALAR
T2 sequence (O54950 whole entry partner): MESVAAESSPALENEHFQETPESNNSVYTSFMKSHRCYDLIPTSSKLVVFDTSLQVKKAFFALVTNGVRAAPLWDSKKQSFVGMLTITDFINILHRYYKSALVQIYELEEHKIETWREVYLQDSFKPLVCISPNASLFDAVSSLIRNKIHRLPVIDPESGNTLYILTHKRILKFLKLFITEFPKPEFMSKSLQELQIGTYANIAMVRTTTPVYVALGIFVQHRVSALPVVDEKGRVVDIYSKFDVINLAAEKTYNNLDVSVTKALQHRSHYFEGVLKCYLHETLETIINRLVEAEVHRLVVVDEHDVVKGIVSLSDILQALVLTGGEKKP
The assay is described as follows: in-cell-ELISA for phospho-ACC: activation of AMPK, beta 2 (HepG2 cells / C2C12 myotubes). The class given is cell-based. The settings on record: 2 h, percentage activation over vehicle control. Here is the method:
as §1, §2

Setting [3] is: 1 μM, read-out: Percentage activation of beta 2 at given concentration.
[4] abbreviates: 3 μM, read-out: Percentage activation of beta 2 at given concentration.

T1 sequence (Q9Y478 2-270 limits assumed): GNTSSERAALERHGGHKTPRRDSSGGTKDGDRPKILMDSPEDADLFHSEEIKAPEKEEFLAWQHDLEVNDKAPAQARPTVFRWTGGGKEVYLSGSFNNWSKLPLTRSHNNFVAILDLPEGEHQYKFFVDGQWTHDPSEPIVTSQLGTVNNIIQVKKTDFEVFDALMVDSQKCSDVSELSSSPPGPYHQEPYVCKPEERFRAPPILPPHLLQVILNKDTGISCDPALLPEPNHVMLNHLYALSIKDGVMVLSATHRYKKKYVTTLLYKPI
T1 sequence (Q13131 whole entry): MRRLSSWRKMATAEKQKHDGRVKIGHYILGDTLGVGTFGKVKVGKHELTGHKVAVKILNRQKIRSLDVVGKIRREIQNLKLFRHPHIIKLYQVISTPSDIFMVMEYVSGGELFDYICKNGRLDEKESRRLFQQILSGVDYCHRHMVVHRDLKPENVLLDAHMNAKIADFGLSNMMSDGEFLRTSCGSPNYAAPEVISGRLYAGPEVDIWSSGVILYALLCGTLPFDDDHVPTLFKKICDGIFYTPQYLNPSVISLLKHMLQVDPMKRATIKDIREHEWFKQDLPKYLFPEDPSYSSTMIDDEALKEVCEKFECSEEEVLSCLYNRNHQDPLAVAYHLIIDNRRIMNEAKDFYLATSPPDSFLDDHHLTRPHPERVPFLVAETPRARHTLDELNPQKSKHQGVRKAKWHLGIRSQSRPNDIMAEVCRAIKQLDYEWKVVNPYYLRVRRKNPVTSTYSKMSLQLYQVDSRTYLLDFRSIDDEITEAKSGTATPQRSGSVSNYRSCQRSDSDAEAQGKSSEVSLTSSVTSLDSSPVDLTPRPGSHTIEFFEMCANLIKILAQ
T1 sequence (P54619 whole entry partner): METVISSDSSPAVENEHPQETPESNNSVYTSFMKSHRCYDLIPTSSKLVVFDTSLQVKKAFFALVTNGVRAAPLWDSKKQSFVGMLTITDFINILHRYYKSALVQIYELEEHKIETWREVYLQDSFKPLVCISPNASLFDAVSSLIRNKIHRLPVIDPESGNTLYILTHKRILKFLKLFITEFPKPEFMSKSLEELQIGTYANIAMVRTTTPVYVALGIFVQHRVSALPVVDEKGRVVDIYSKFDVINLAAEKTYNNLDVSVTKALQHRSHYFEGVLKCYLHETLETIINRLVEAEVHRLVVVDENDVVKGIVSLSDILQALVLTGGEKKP

Consider `COc1ccc(C2CC23C(=O)Nc2cc(F)c(-c4ccc(-c5ccc(-n6cncn6)cc5)cc4)cc23)cc1C(=O)O` (centres unmarked) [Example 168], for which the values for the activation at 1 µM in assay [1] (1 μM) and in assay [2] (setting [3]) were 55% and 84%, respectively.

Consider `Cc1ccc(C2CC23C(=O)Nc2cc(F)c(-c4ccc(-c5ccc(-n6cncn6)cc5)cc4)cc23)cc1C(=O)O` (centres unmarked) [Example 145], for which the “Percentage activation of beta 1 at given concentration” value in assay [1] (1 μM) was found to be 67% at 1 μM. The “Percentage activation of beta 2 at given concentration” value in assay [2] (1 μM) was determined as 138% at 1 μM. `Cc1ccc(C2CC23C(=O)Nc2cc(Cl)c(-c4ccc(-c5ccc(-n6cccn6)cc5)cc4)nc23)cc1C(=O)O` (centres unmarked) [Example 138]: the activation at 1 µM is 72% in assay [1] (1 μM) and 173% in assay [2] (setting [3]). As for `O=C(O)c1cccc(C2CC23C(=O)Nc2cc(Cl)c(-c4ccc(-c5ccncc5)cc4)cc23)c1` (centres unmarked) [Example 80], the activation at 10 µM in assay [1] stood at 137%. Further, the activation at 3 µM in assay [2] (setting [4]) worked out at 54%. For the compound `COc1ccc(C2CC23C(=O)N(C)c2cc(Cl)c(-c4ccc(-c5ccccc5O)cc4)cc23)cc1CC(=O)O` (centres unmarked) [Example 35], the activation at 3 µM in assay [1] (3 μM) stood at 27%; in assay [2] (setting [4]) it was 23%.

With `Cc1ccc(C2CC23C(=O)Nc2cc(Cl)c(-c4ccc(-c5ccc(S(C)(=O)=O)cc5)cc4)cc23)cc1C(=O)O` (centres unmarked) [Example 97], the activation at 1 µM in assay [1] (1 μM) turned out to be 99%; in assay [2] (setting [3]), 37%. For `Cc1ccc(C2CC23C(=O)Nc2cc(F)c(-c4ccc(-c5ccc(-n6cncn6)cc5)cc4)cc23)cc1C(=O)O` (centres unmarked) [Example 146], the “Percentage activation of beta 1 at given concentration” value in assay [1] (1 μM) was 78% at 1 μM. For the same compound, the “Percentage activation of beta 2 at given concentration” value in assay [2] (1 μM) was 89% at 1 μM. With `O=C(O)c1ccc(C2CC23C(=O)Nc2cc(Cl)c(-c4ccc(-c5ccncc5)cc4)cc23)cc1` (centres unmarked) [Example 95], the activation at 10 µM in assay [1] is 94%; in assay [2] (10 μM, read-out: Percentage activation of beta 2 at given concentration), 34%. In the case of `Cc1ccc(C2CC23C(=O)Nc2cc(Cl)c(-c4ccc(-c5ccc(-n6ccnn6)cc5)cc4)cc23)cc1C(=O)O` (centres unmarked) [Example 135], the “Percentage activation of beta 1 at given concentration” value in assay [1] (1 μM) amounted to 97% at 1 μM. The “Percentage activation of beta 2 at given concentration” value in assay [2] (1 μM) was 214% at 1 μM. With `Cc1ccc(C2CC23C(=O)Nc2cc(Cl)c(-c4ccc(-c5ccc(-n6cccn6)cc5)cc4)cc23)cc1C(=O)O` (centres unmarked) [Example 114], in assay [1] (1 μM), the activation at 1 µM came out at 79%. In assay [2] (setting [4]), the activation at 3 µM was 57%. For `O=C(O)Cc1ccc(C2CC23C(=O)Nc2cc(Cl)c(-c4ccc(-c5ccccc5O)cc4)cc23)cc1` (centres unmarked) [Example 33], the values for the activation at 3 µM in assay [1] (3 μM) and in assay [2] (setting [4]) were 71% and 83%, respectively. On to `O=C(O)c1cccc(C2CC23C(=O)Nc2cc(F)c(-c4ccc(-c5ccc(-n6cccn6)cc5)cc4)cc23)c1` (centres unmarked) [Example 170], for which the activation at 1 µM in assay [1] (1 μM) came to 58%; in assay [2] (setting [3]) it was 50%. Take `Cc1ccc(C2CC23C(=O)Nc2cc(F)c(-c4ccc(-c5ccccc5O)cc4)cc23)cc1CO` (centres unmarked) [Example 190]: the activation at 1 µM in assay [1] (1 μM) was found to be 121%; in assay [2] (setting [3]) it was 94%.

Take `Cc1ccc(C2CC23C(=O)Nc2cc(Cl)c(-c4ccc(-c5ccc(-n6cncn6)cc5)cc4)cc23)cc1C(=O)O` (centres unmarked) [Example 115]: the “Percentage activation of beta 1 at given concentration” value in assay [1] (1 μM) is on record as 132% at 1 μM. Moreover, the activation at 1 µM in assay [2] (setting [3]) came out at 114%. Turning to `COc1ccc(C2CC23C(=O)Nc2cc(Cl)c(-c4ccc(-c5ccc(-n6cncn6)cc5)cc4)cc23)cc1CC(=O)O` (centres unmarked) [Example 123], the activation at 1 µM came out at 66% in assay [1] (1 μM) and 85% in assay [2] (setting [3]).

Take `Cc1ccc(C2CC23C(=O)Nc2cc(Cl)c(-c4ccc(-c5ccccc5O)cc4)cc23)cc1CO` (centres unmarked) [Example 181]: the activation at 1 µM in assay [1] (1 μM) and in assay [2] (setting [3]) was 88% in each case.

With `CCc1ccc(C2CC23C(=O)Nc2cc(Cl)c(-c4ccc(-c5ccc(-n6cncn6)cc5)cc4)nc23)cc1C(=O)O` (centres unmarked) [Example 133], the activation at 1 µM in assay [1] (1 μM) amounted to 49%; in assay [2] (setting [3]) it was 36%. On to `CC(C)c1ccc(C2CC23C(=O)Nc2cc(Cl)c(-c4ccc(C5(CO)CC5)cc4)cc23)cc1C(=O)O` (centres unmarked) [Example 46], for which the activation at 3 µM in assay [1] (3 μM) was 83%; in assay [2] (setting [4]), 42%.

With `CCc1ccc(C2CC23C(=O)Nc2cc(Cl)c(-c4ccc(-c5ccc(-n6cncn6)cc5)cc4)cc23)cc1C(=O)O` (centres unmarked) [Example 130], the activation at 1 µM in assay [1] (1 μM) came to 52%; in assay [2] (setting [3]), 102%.

For the compound `COc1ccc(C2CC23C(=O)Nc2cc(F)c(-c4ccc(-c5ccc(-n6ccnn6)cc5)cc4)cc23)cc1C(=O)O` (centres unmarked) [Example 169], the figures for the activation at 1 µM in assay [1] (1 μM) and in assay [2] (setting [3]) were 36% and 61%, respectively. For `Cc1ccc(C2CC23C(=O)Nc2c3cc(-c3ccc(-c4ccc(-n5cncn5)cc4)cc3)c(Cl)c2Cl)cc1C(=O)O` (centres unmarked) [Example 149], in that order: 26% and 62%. For `CC(C)(C(=O)O)c1ccc(C2CC23C(=O)Nc2cc(F)c(-c4ccc(-c5ccc(-n6cccn6)cc5)cc4)cc23)cc1` (centres unmarked) [Example 158], the activation at 1 µM turned out to be 78% in assay [1] (1 μM) and 38% in assay [2] (setting [3]). In the case of `Cc1ccc(C2CC23C(=O)N(C)c2cc(Cl)c(-c4ccc(-c5ccncc5)cc4)cc23)cc1C(=O)O` (centres unmarked) [Example 101], the activation at 1 µM in assay [1] (1 μM) amounted to 103%. Further, the activation at 3 µM in assay [2] (setting [4]) came out at 46%. For the compound `Cc1ccc(C2CC23C(=O)Nc2cc(Cl)c(-c4ccc(-c5ccc(-n6ccnn6)cc5)cc4)cc23)cc1C(=O)O` (centres unmarked) [Example 134], the “Percentage activation of beta 1 at given concentration” value in assay [1] (1 μM) is listed as 123% at 1 μM. Further, the “Percentage activation of beta 2 at given concentration” value in assay [2] (1 μM) came out at 47% at 1 μM. `COc1ccc(C2CC23C(=O)Nc2cc(Cl)c(-c4ccc(-c5ccccc5O)cc4)cc23)cc1CC(=O)O` (centres unmarked) [Example 25]: in assay [1] (1 μM), the activation at 1 µM turned out to be 62%. Besides, in assay [2] (setting [4]), the activation at 3 µM is 101%. As for `CCN1C(=O)C2(CC2c2ccc(C)c(C(=O)O)c2)c2cc(-c3ccc(-c4ccncc4)cc3)c(Cl)cc21` (centres unmarked) [Example 103], the activation at 3 µM in assay [1] (3 μM) amounted to 74%; in assay [2] (setting [4]), 2%. Regarding `Cc1ccc(C2CC23C(=O)Nc2cc(Cl)c(-c4ccc(-c5ccncc5)cc4)cc23)cc1C(=O)O` (centres unmarked) [Example 60], in assay [1] (1 μM), the activation at 1 µM was 66%. Further, the activation at 3 µM in assay [2] (setting [4]) turned out to be 105%. Take `Cc1ccc(C2CC23C(=O)Nc2cc(Cl)c(-c4ccc(-c5ccnc(N(C)C)c5)cc4)cc23)cc1C(=O)O` (centres unmarked) [Example 86]: the figures for the activation at 3 µM in assay [1] (3 μM) and in assay [2] (setting [4]) were 95% and 49%, respectively. `Cc1ccc(C2CC23C(=O)Nc2cc(F)c(-c4ccc(-c5ccccc5O)cc4)cc23)cc1C(=O)O` (centres unmarked) [Example 5]: the activation at 3 µM in assay [1] (3 μM) was found to be 133%. For the same compound, in assay [2] (setting [3]), the activation at 1 µM was found to be 50%. In the case of `CC(C)(C(=O)O)c1ccc(C2CC23C(=O)Nc2cc(Cl)c(-c4ccc(-c5ccccc5O)cc4)cc23)cc1` (centres unmarked) [Example 38], the activation at 1 µM in assay [1] (1 μM) was determined as 58%. The activation at 3 µM in assay [2] (setting [4]) is 106%. Turning to `Cc1ccc(C2CC23C(=O)N(CC2CC2)c2cc(Cl)c(-c4ccc(-c5ccncc5)cc4)cc23)cc1C(=O)O` (centres unmarked) [Example 108], the “Percentage activation of beta 1 at given concentration” value in assay [1] (3 μM) was found to be 72% at 3 μM. In addition, the “Percentage activation of beta 2 at given concentration” value in assay [2] (3 μM) is 54% at 3 μM.

Regarding `Cc1ccc(C2CC23C(=O)Nc2cc(Cl)c(-c4ccc(-c5ccc(-n6cncn6)cc5)cc4)nc23)cc1C(=O)O` (centres unmarked) [Example 125], the activation at 1 µM was found to be 81% in assay [1] (1 μM) and 46% in assay [2] (setting [3]). As to `CC(C)(C(=O)O)c1ccc(C2CC23C(=O)Nc2cc(F)c(-c4ccc(-c5ccc(-n6cncn6)cc5)cc4)cc23)cc1` (centres unmarked) [Example 162], the “Percentage activation of beta 1 at given concentration” value in assay [1] (1 μM) was 61% at 1 μM. For the same compound, the activation at 1 µM in assay [2] (setting [3]) was 79%. As to `CC(C)c1ccc(C2CC23C(=O)Nc2cc(Cl)c(-c4ccc(-c5ccc(-n6cncn6)cc5)cc4)cc23)cc1C(=O)O` (centres unmarked) [Example 132], the values for the activation at 1 µM in assay [1] (1 μM) and in assay [2] (setting [3]) were 59% and 153%, respectively.

As to `O=C(O)Cc1cccc(C2CC23C(=O)Nc2cc(Cl)c(-c4ccc(-c5cccnc5)cc4)cc23)c1` (centres unmarked) [Example 65], the activation at 10 µM in assay [1] worked out at 89%.

For the compound `CC(C)c1ccc(C2CC23C(=O)Nc2cc(Cl)c(-c4ccc(-c5ccccc5O)cn4)cc23)cc1C(=O)O` (centres unmarked) [Example 24], the activation at 10 µM in assay [1] was determined as 85%. As to `Cc1ccc(C2CC23C(=O)N(CC2CC2)c2cc(Cl)c(-c4ccc(-c5ccncc5)cc4)cc23)cc1C(=O)O` (centres unmarked) [Example 109], in assay [1] (3 μM), the activation at 3 µM amounted to 83%. In the case of `O=C1Nc2cc(F)c(-c3ccc(-c4ccccc4O)cc3)cc2C12CC2c1cccc(-c2nnn[nH]2)c1` (centres unmarked) [Example 179], in assay [1] (3 μM), the activation at 3 µM stood at 23%. In the case of `Cc1ccc(C2CC23C(=O)Nc2cc(Cl)c(-c4ccc(-c5ccc(-n6cncn6)cc5)cc4)cc23)cc1C(=O)O` (centres unmarked) [Example 119], the “Percentage activation of beta 1 at given concentration” value in assay [1] (1 μM) was 99% at 1 μM. Regarding `CC(C)(C(=O)O)c1ccc(C2CC23C(=O)Nc2cc(F)c(-c4ccc(-c5ccc(-n6cncn6)cc5)cc4)cc23)cc1` (centres unmarked) [Example 163], in assay [1] (1 μM), the “Percentage activation of beta 1 at given concentration” value is listed as 131% at 1 μM.
